What was measured:
[1] = test system: interleukin-6 (IL-6) release from fresh human whole blood; assay: Ex vivo release of interleukin-6 from fresh human whole blood (ELISA); format: cell-based; conditions: for concentration of IL-6: human whole blood cultures, 24 hours, n = 5
Description: Ex vivo assessment of proinflammatory properties of the AP301 peptide in human whole blood. […] In this study, fresh human whole blood has been used, as it represents an approved predictive model system for the assessment of inflammatory response in vivo.
Summary of methodology. It was the goal of this study to determine the proinflammatory signalling capacity of the peptide AP301. Whole blood cultures were used and the secretion of interleukin-6 (IL-6), a very sensitive marker for proinflammatory stimulation, was quantified by ELISA.
Test system 25 ml of freshly taken heparinized blood from • 5 healthy volunteers (HV) was used in the tests. […]
Whole blood cultures. Whole blood (WB) cultures are performed by pipetting 1 ml WB into wells of 24-well-plates. In each experiment, unstimulated and control-stimulated cultures were included.
If possible, the substances and stimulants to be investigated were always added in an identical volume to each well of a given experiment, which is not greater than 10% of the total volume contained in a well. Unstimulated controls received PBS. Volume adjustments and dilutions for different treatments were also done with PBS.
The content of each well was mixed and the plates incubated at 37° C. and 5% CO2 for 24 hours. After incubation the content of each well was transferred to a fresh 1.5 ml microtube and centrifuged at 8,000-9,000×g for 15 minutes. The supernatant of each sample was transferred individually to two 1.5 ml microtubes and kept at −20° C. until use.
Detection of interleukin-6. Interleukin-6 was quantified by a specific ELISA (Human IL-6 ELISA Set, BD Biosciences, Cat. No. 555220) employing an anti-human IL-6 antibody as capture antibody, a biotinylated anti-human IL-6 detection antibody, avidin-horseradish peroxidase conjugate as enzyme reagent and recombinant IL-6 as standard. Absorbance measurement was performed at 450 nm using the Packard FusionReader.
Data analysis. The results for each plate were stored and evaluated using the FusionDataAnalysis Software. […]

[2] = test system: influenza strain A (PR8/34); assay: Relative lung weight as a measure of pulmonary inflammation in mice infected with influenza A; format: in vivo, mice (strain C57BL/6); conditions: repeated on days 2 and 4
Procedure: Infection with influenza virus causes the development of a pulmonary inflammation. Laboratory mice (strain C57BL/6, 8 weeks old) were infected per-nasal with the influenza strain A (PR8/34) at a dose of 150 PFU. On days 3, 5, 7 and 9 following the infection, the lungs were taken out of 8 mice, respectively, and the relative lung weight was determined as a measure of the pulmonary inflammation.
Treatment of the pulmonary inflammation by administering the neuraminidase inhibitor or administering a combination of neuraminidase inhibitor and peptide AP301. Laboratory mice (strain C57BL/6, 8 weeks old) were infected per-nasal with the influenza strain A (PR8/34) at a dose of 150 PFU. Subsequently, each test animal received an oral administration of 10 mg/kg Oseltamivir (neuraminidase inhibitor) and an intratracheal administration of 10 μg/test animal of peptide AP301. The treatment was repeated on test days 2 and 4. On days 5, 7 and 9 following the infection, the lungs were taken out of 30 mice, respectively, and the relative lung weight was determined as a measure of the pulmonary inflammation. The results are shown graphically in FIG. 2. […]
On days 7 and 9 following the infection, the lungs were taken out of 20 mice, respectively, and the relative lung weight was determined as a measure of the pulmonary inflammation. […]

In the case of C[C@@H]1NC(=O)CNC(=O)[C@H](CCC(=O)O)NC(=O)[C@@H]2CCCN2C(=O)[C@H]([C@@H](C)O)NC(=O)[C@H](CCC(=O)O)NC(=O)[C@H](CCCNC(=N)N)NC(=O)[C@H](CCC(N)=O)NC(=O)CNC(=O)[C@@H](N)CSSC[C@@H](C(=O)O)NC(=O)[C@H](Cc2ccc(O)cc2)NC(=O)[C@H](Cc2c[nH]c3ccccc23)NC(=O)[C@@H]2CCCN2C(=O)[C@H](CCCCN)NC(=O)[C@H](C)NC(=O)[C@H](CCC(=O)O)NC1=O [AP301, (NH2) Cys-Gly-Gln-Arg-Glu-Thr-Pro-Glu-Gly-Ala-Glu-Ala-Lys-Pro-Trp-Tyr-Cys (COOH)], the “induction of IL-6 secretion (in words)” value ([1]; all concentrations tested (10 μg/ml to 1 ng/ml for peptide; high and low doses of LPS), five healthy donors) is reported as “did not induce any detectable level of IL-6 secretion”, the “TNF receptor binding activity / proinflammatory response (concluded from IL-6 release)” value ([1]; ex vivo human whole blood model) is reported as “does not exhibit any TNF receptor binding activity” and the “concentration of IL-6” value ([1]; test item concentration 1 ng/ml) is reported as “less than 0.5 pg/ml”. For the same molecule, the “concentration of IL-6” value ([1]; test item concentration 3 ng/ml) was “less than 0.5 pg/ml”, the “concentration of IL-6” value ([1]; test item concentration 1 mg/ml) was “less than 0.5 pg/ml” and the “concentration of IL-6” value ([1]; test item concentration 10 mg/ml) was “less than 0.5 pg/ml”.
CCOC(=O)C1=C[C@@H](OC(CC)CC)[C@H](NC(C)=O)[C@@H](N)C1 [Oseltamivir] was tested, and the “reduction of pulmonary inflammation, as measured by the lung weight” value ([2]; Example 2: 150 PFU per-nasal, Oseltamivir 10 mg/kg oral, AP301 10 μg/test animal intratracheal, lungs on days 5, 7 and 9) was “just a moderate effect on reducing the pulmonary inflammation”.
For CC(=O)N[C@H]1[C@H]([C@H](O)[C@H](O)CO)OC(C(=O)O)=C[C@@H]1N=C(N)N [Zanamivir], the “reduction of pulmonary inflammation, as measured by the lung weight” value ([2]; Example 4: 150 PFU per-nasal, Zanamivir 1.5 mg/kg nasal, AP301 50 μg/test animal intratracheal, lungs on days 7 and 9) was “just a moderate effect on reducing the pulmonary inflammation”.
